{"source": "patent US11117874B2", "about": "“Certain (2S)-N-[(1S)-1-cyano-2-phenylethyl]-1,4-oxazepane-2-carboxamides as dipeptidyl peptidase 1 inhibitors” (AstraZeneca AB, priority 2014, dated 2021)", "data": [{"assay": "not given", "details": "described in literature (Schmidt et al. 1984); cited from earlier work", "values": [{"smiles": "CC(c1ccc(Cl)c(Cl)c1)N1N=C(N)CC1=O", "note": "(stereo not drawn) [muzolimine]", "retention in the aorta in QWBA studies": "retained selectively in the aorta"}]}, {"assay": "Test B: In-Vitro Competitive Aortic Tissue Binding Assay", "details": "100 μM compound pre-incubated overnight at 37° C. with rat aortic homogenate, competition with 100 μM [14C]4-amino-N-[(1S)-1-cyano-2-(4′-cyanobiphenyl-4-yl)ethyl]tetrahydro-2H-pyran-4-carboxamide; four categories", "experimental": "To assist the design of DPP1 inhibitors with a decreased risk of binding to elastin rich tissues, such as the aorta, the in-vitro competitive aortic binding assay disclosed below (Test B) was developed to facilitate the selection process.\nTest B: In-Vitro Competitive Aortic Tissue Binding Assay\nAortic homogenate was prepared from the thoracic aortae of Han Wistar rats. Freshly isolated to thoracic aortae were frozen, and later thawed and stripped of non-elastic material.\nHomogenate concentration was adjusted to 30 mg/mL in Puck's saline, and aliquots were stored at −80° C. until use. Positive and negative control compounds and test compounds were made up to 100 mM in DMSO, and added to 1 mL aliquots of aortic homogenate in Puck's saline for a final concentration of 100 μM. Homogenate samples were pre-incubated with test compounds at 37° C., rotating, overnight. [^14C]4-Amino-N-[(1S)-1-cyano-2-(4′-cyanobiphenyl-4-yl)ethyl]tetrahydro-2H-pyran-4-carboxamide was then added to all samples to a final concentration of 100 μM, and samples were incubated at 37° C., rotating, for a further 2 h. Protein was precipitated from each sample by the addition of 10 mL acetone, pre-chilled to −20° C. Samples were left overnight at −20° C. to allow complete precipitation. Precipitate was pelleted by centrifugation at 4,500×g at 4° C. for 20 min, an aliquot of supernatant was removed for analysis, and the remainder of the supernatant discarded. Precipitate was washed by resuspension in 10 mL 80% methanol in distilled water, and re-pelleted by centrifugation at 4,500×g at 4° C. for 20 min. […] After final wash, precipitate was air-dried, and dissolved overnight in 1 mL NCSII Tissue Solubiliser. 1 mL aliquots of supernatants were added to 5 mL Ultima Gold scintillation fluid (Perkin Elmer, Mass., U.S.A.), and 1 mL solubilised pellets were added to 5 mL Hionic-Fluor scintillation fluid (Perkin Elmer, Mass., U.S.A.). Radioactivity of samples was determined on a Beckman LS6500 multipurpose scintillation counter (Beckman Coulter, Ind., U.S.A.). […] Duplicate samples were tested for each compound on each experimental occasion, and at least two experiments were run for each test compound. […] 1-way ANOVA and to Bonferroni's multiple comparison tests were performed to calculate significance of differences from vehicle control.", "values": [{"smiles": "Cn1c(=O)oc2ccc(-c3ccc(C[C@@H](C#N)NC(=O)[C@@H]4CNCCCO4)cc3)cc21", "note": "[Example 2, (2S)—N-{(1S)-1-Cyano-2-[4-(3-methyl-2-oxo-2,3-dihydro-1,3-benzoxazol-5-yl)phenyl]ethyl}-1,4-oxazepane-2-carboxamide]", "Aortic Tissue Binding": "No binder"}, {"smiles": "N#Cc1ccc(-c2ccc(C[C@@H](C#N)NC(=O)[C@@H]3CCCCN3)cc2)cc1", "note": "[WO2009/074829 (Example 24)]", "Aortic Tissue Binding": "Binder"}, {"smiles": "Cn1c(=O)oc2ccc(-c3ccc(C[C@@H](C#N)NC(=O)[C@@H]4CCCCN4)cc3)cc21", "note": "[WO2009/074829 (Example 96)]", "Aortic Tissue Binding": "Medium binder"}, {"smiles": "N#Cc1ccc(-c2ccc(C[C@@H](C#N)NC(=O)C3(N)CCOCC3)cc2)cc1", "note": "[WO2010/128324 (Ex. 3), 4-amino-N-[(1S)-1-cyano-2-(4′-cyanobiphenyl-4-yl)ethyl]tetrahydro-2H-pyran-4-carboxamide]", "Aortic Tissue Binding": "Strong binder (reference)"}, {"smiles": "Cn1c(=O)oc2ccc(-c3ccc(C[C@@H](C#N)NC(=O)C4(N)CCOCC4)cc3)cc21", "note": "[WO2010/128324 (Example 17)]", "Aortic Tissue Binding": "Strong binder"}]}]}
